In PubChem BioAssay AID2060884 (Molecular Pharmacology Branch, DTP, NCI, 2025):

Test system: NCI-H929 complex spheroids, viability % test/control
Experiment: Anticancer human tumor NCI-H929 cell line growth inhibition [RAS];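 note: compound exposure lasted seven days before viability was read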;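 for viability, T/C: 100% = DMSO vehicle control viability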
Details: for IC50: curve of first compound; for viability, T/C: stronger effect = lower value
In short: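 Agents were tested in combination matrices in half-log decrements from a top concentration at or near clinical Cmax (10 microM if undetermined). Targets were multi-cell spheroids of tumour lines plus HUVEC and MSC stromal cells.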

[1] = second compound 0.00316 µM, first compound 0.0316 µM
[2] = second compound 0.00316 µM, first compound 0.1 µM
[3] = second compound 0.00316 µM, first compound 0.316 µM
[4] = second compound 0.00316 µM, first compound 1 µM
[5] = second compound 0.00316 µM, first compound 3.16 µM
[6] = second compound 0.00316 µM, first compound 10 µM
[7] = second compound 0.01 µM, first compound 0.0316 µM
[8] = second compound 0.01 µM, first compound 0.1 µM
[9] = second compound 0.01 µM, first compound 0.316 µM
[10] = second compound 0.01 µM, first compound 1 µM
[11] = second compound 0.01 µM, first compound 3.16 µM
[12] = second compound 0.01 µM, first compound 10 µM
[13] = second compound 0.0316 µM, first compound 0.0316 µM
[14] = second compound 0.0316 µM, first compound 0.1 µM
[15] = second compound 0.0316 µM, first compound 0.316 µM
[16] = second compound 0.0316 µM, first compound 1 µM
[17] = second compound 0.0316 µM, first compound 3.16 µM
[18] = second compound 0.0316 µM, first compound 10 µM
[19] = second compound 0.1 µM, first compound 0.0316 µM
[20] = second compound 0.1 µM, first compound 0.1 µM
[21] = second compound 0.1 µM, first compound 0.316 µM
[22] = second compound 0.1 µM, first compound 1 µM
[23] = second compound 0.1 µM, first compound 3.16 µM
[24] = second compound 0.1 µM, first compound 10 µM
[25] = second compound 0.316 µM, first compound 0.0316 µM
[26] = second compound 0.316 µM, first compound 0.1 µM
[27] = second compound 0.316 µM, first compound 0.316 µM
[28] = second compound 0.316 µM, first compound 1 µM
[29] = second compound 0.316 µM, first compound 3.16 µM
[30] = second compound 0.316 µM, first compound 10 µM
[31] = second compound 1 µM, first compound 0.0316 µM
[32] = second compound 1 µM, first compound 0.1 µM
[33] = second compound 1 µM, first compound 0.316 µM
[34] = second compound 1 µM, first compound 1 µM
[35] = second compound 1 µM, first compound 3.16 µM
[36] = second compound 1 µM, first compound 10 µM

`Cc1nc(N2CCC3(CC2)COC(C)C3N)c(CO)nc1Sc1ccnc(N)c1Cl` (stereo unspecified) + C=CC(=O)N1CCN(c2nc(OCC3CCCN3C)nc3c(F)c(-c4nc(N)cc(C)c4C(F)(F)F)c(Cl)cc23)C(C)C1 was tested, and the IC50 (second compound 0.00316 µM) was over 10 µM, the IC50 (second compound 0.01 µM) was over 10 µM and the IC50 (second compound 0.0316 µM) was over 10 µM. It also gave an IC50 (second compound 0.1 µM) of over 10 µM, an IC50 (second compound 0.316 µM) of over 10 µM and an IC50 (second compound 1 µM) of over 10 µM. It also gave a viability, T/C [1] of 97.9%, a viability, T/C [2] of 94.5% and a viability, T/C [3] of 97.1%. For the same molecule, the viability, T/C [4] was 94.4%, the viability, T/C [5] was 101% and the viability, T/C [6] was 98.3%. For the same molecule, the viability, T/C [7] was 95.8%, the viability, T/C [8] was 96% and the viability, T/C [9] was 99.8%. For the same molecule, the viability, T/C [10] was 96.5%, the viability, T/C [11] was 101% and the viability, T/C [12] was 102%. The viability, T/C [13] was 95.7%, the viability, T/C [14] was 102% and the viability, T/C [15] was 100%. It also gave a viability, T/C [16] of 99.3%, a viability, T/C [17] of 102% and a viability, T/C [18] of 102%. It also gave a viability, T/C [19] of 95.6%, a viability, T/C [20] of 101% and a viability, T/C [21] of 100%. For the same molecule, the viability, T/C [22] was 102%, the viability, T/C [23] was 104% and the viability, T/C [24] was 99.7%. It also gave a viability, T/C [25] of 101%, a viability, T/C [26] of 101% and a viability, T/C [27] of 103%. It also gave a viability, T/C [28] of 100%, a viability, T/C [29] of 102% and a viability, T/C [30] of 104%. It also gave a viability, T/C [31] of 104%, a viability, T/C [32] of 105% and a viability, T/C [33] of 105%. The viability, T/C [34] was 105%, the viability, T/C [35] was 109% and the viability, T/C [36] was 103%.
`NC1c2ccccc2OC12CCN(c1cnc3c(N4CCCc5ncccc54)n[nH]c3n1)CC2` (stereo unspecified) + C=CC(=O)N1CCN(c2nc(OCC3CCCN3C)nc3c(F)c(-c4nc(N)cc(C)c4C(F)(F)F)c(Cl)cc23)C(C)C1 gave an IC50 (second compound 0.00316 µM) of over 10 µM, an IC50 (second compound 0.01 µM) of over 10 µM and an IC50 (second compound 0.0316 µM) of over 10 µM. For the same molecule, the IC50 (second compound 0.1 µM) was over 10 µM, the IC50 (second compound 0.316 µM) was over 10 µM and the IC50 (second compound 1 µM) was over 10 µM. It also gave a viability, T/C [1] of 98.8%, a viability, T/C [2] of 94.8% and a viability, T/C [3] of 99.3%. It also gave a viability, T/C [4] of 98.9%, a viability, T/C [5] of 101% and a viability, T/C [6] of 66.2%. It also gave a viability, T/C [7] of 96.2%, a viability, T/C [8] of 90.6% and a viability, T/C [9] of 96%. For the same molecule, the viability, T/C [10] was 103%, the viability, T/C [11] was 99% and the viability, T/C [12] was 66.8%. For the same molecule, the viability, T/C [13] was 96.9%, the viability, T/C [14] was 99.7% and the viability, T/C [15] was 101%. For the same molecule, the viability, T/C [16] was 99.8%, the viability, T/C [17] was 96.6% and the viability, T/C [18] was 63.5%. For the same molecule, the viability, T/C [19] was 92.4%, the viability, T/C [20] was 99% and the viability, T/C [21] was 102%. The viability, T/C [22] was 97.4%, the viability, T/C [23] was 97.5% and the viability, T/C [24] was 69.3%. The viability, T/C [25] was 101%, the viability, T/C [26] was 103% and the viability, T/C [27] was 105%. The viability, T/C [28] was 103%, the viability, T/C [29] was 102% and the viability, T/C [30] was 71.7%. For the same molecule, the viability, T/C [31] was 104%, the viability, T/C [32] was 107% and the viability, T/C [33] was 103%. It also gave a viability, T/C [34] of 102%, a viability, T/C [35] of 105% and a viability, T/C [36] of 68.9%.
With `Nc1ccn(C2OC(CO)C(O)C2(F)F)c(=O)n1` (stereo unspecified) + C=CC(=O)N1CCN(c2nc(OCC3CCCN3C)nc3c(F)c(-c4nc(N)cc(C)c4C(F)(F)F)c(Cl)cc23)C(C)C1 the IC50 (second compound 0.00316 µM) was 0.0184 µM, the IC50 (second compound 0.01 µM) was 0.0184 µM and the IC50 (second compound 0.0316 µM) was 0.0184 µM. It also gave an IC50 (second compound 0.1 µM) of 0.0177 µM, an IC50 (second compound 0.316 µM) of 0.0186 µM and an IC50 (second compound 1 µM) of 0.0189 µM. The viability, T/C (second compound 0.00316 µM, first compound 0.00316 µM) was 102%, the viability, T/C (second compound 0.00316 µM, first compound 0.01 µM) was 106% and the viability, T/C [1] was 1.52%. It also gave a viability, T/C [2] of 2.24%, a viability, T/C [3] of 1.73% and a viability, T/C [4] of 0.82%. It also gave a viability, T/C (second compound 0.01 µM, first compound 0.00316 µM) of 97.8%, a viability, T/C (second compound 0.01 µM, first compound 0.01 µM) of 111% and a viability, T/C [7] of 1.3%. The viability, T/C [8] was 2.1%, the viability, T/C [9] was 1.62% and the viability, T/C [10] was 0.86%. It also gave a viability, T/C (second compound 0.0316 µM, first compound 0.00316 µM) of 94.8%, a viability, T/C (second compound 0.0316 µM, first compound 0.01 µM) of 114% and a viability, T/C [13] of 1.48%. For the same molecule, the viability, T/C [14] was 1.95%, the viability, T/C [15] was 1.12% and the viability, T/C [16] was 0.76%. It also gave a viability, T/C (second compound 0.1 µM, first compound 0.00316 µM) of 99.3%, a viability, T/C (second compound 0.1 µM, first compound 0.01 µM) of 97.3% and a viability, T/C [19] of 1.86%. It also gave a viability, T/C [20] of 2.03%, a viability, T/C [21] of 1.73% and a viability, T/C [22] of 1%. It also gave a viability, T/C (second compound 0.316 µM, first compound 0.00316 µM) of 101%, a viability, T/C (second compound 0.316 µM, first compound 0.01 µM) of 114% and a viability, T/C [25] of 1.08%. It also gave a viability, T/C [26] of 1.62%, a viability, T/C [27] of 1.46% and a viability, T/C [28] of 0.81%. It also gave a viability, T/C (second compound 1 µM, first compound 0.00316 µM) of 103%, a viability, T/C (second compound 1 µM, first compound 0.01 µM) of 118% and a viability, T/C [31] of 1.88%. It also gave a viability, T/C [32] of 2.07%, a viability, T/C [33] of 0.99% and a viability, T/C [34] of 0.9%.
